Reference: patent US5342612A, “Compositions for the treatment of mammalian diseases” (priority 1991, dated 1994)
Read-outs that look alike come from different tables or passages of the source.

What was measured:
[1] = Toxicity of formulations on mammalian cell lines (cell viability, Coulter); format: cell-based, murine
Experimental: (§1) Cell Lines: A20: B-cell tumor cell line 9C127: T-cell hybridoma cell line LB/62287: B-cell lymphoma cell line P388.D1: Macrophage tumor cell line
(§2) Cell lines (1×10^5 /well; >85% viability) are cultured in 24 well flat bottom plates in RPMI® medium (Gibco Laboratories, Grand Island, N.Y.) supplemented with 10% fetal calf serum, streptomycin (100 μg/mL) and penicillin (100 U/mL). Cultures are incubated (37° C., 10% CO2) with the following concentrations of vehicles:
(§3) c) 1.0%, 0.1% or 0.01% Triacetin or IMWITOR®
(§4) After a 72 hour or 6 hour incubation period, cells are harvested and counted by the Coulter Counter (Northwell Drive, England). Cell viability is determined using a Coulter Channelyzer.
(§5) The relative toxicity of the sample formulations to estimate the relative degree of toxicity for in vivo administration is carried out in vitro with the mammalian cell lines. Various concentrations of the vehicles are incubated for either 6 or 24 hours with the different mammalian cell lines. Immediate toxicity is evaluated at 6 hours by quantitating the number of dead cells in treated wells as compared to the untreated controls. Long term toxicity effects as well as effects which may inhibit cell growth are evaluated by measuring the relative degree of proliferation after an additional 48 hours incubation with ^3 H-thymidine.

[2] = system: A20 (B-cell tumor cell line); assay: as above; format: cell-based, murine
Experimental: as §1, §2, §3, §4, §5

[3] = in vitro; format: cell-based, murine; conditions: mouse, p388.d1 cells, Relative Toxicity at 6 Hours
Experimental: as §1, §2, §3, §4, §5

[4] = system: LB/62287 (B-cell lymphoma cell line); assay: Toxicity of formulations on mammalian cell lines (cell viability, Coulter); format: cell-based, murine
Experimental: as §1, §2, §3, §4, §5

[5] = system: mammary gland; conditions: bovine, in vivo
Experimental: Multiparous Holstein-Fresian dairy cattle cultured negative for infection and with individual quarter somatic cell counts less than 200,000 cells/mL are used. The lactating dairy cows receive a ration consisting of corn silage, alfalfa hay and concentrate which is formulated to provide recommended amounts of minerals and vitamins for a lactating dairy cow. Water is provided ad libitum.
The somatic cell count (SCC) of twelve normal glands are determined prior to treatment. Three groups of four quarters each receive an intramammary infusion of 10 mL to 60 mL of the respective vehicles identified in Example 1, 15% w/v poloxamer 407 NF (PLURONIC® F127), 50% w/v glycerol, 10% w/v triacetin (glyceryl triacetate) and the sPBS as a control. In vivo degree of irritation is measured by infusing a quarter of a mammary gland with the vehicle and measuring the SCC at 12, 36 and 60 hours after infusion. The data are expressed as the stimulation index which is calculated as the average experimental SCC divided by the control SCC.

[6] = system: Staphylococcus aureus mastitis (Newbould 305); assay: Efficacy of lysostaphin formulated in vehicles as intramammary infusion against Staphylococcus aureus mastitis; format: in vivo, bovine (dairy cows)
Description: This experiment examines the ability of various lysostaphin formulations to eliminate S. aureus infections in the bovine mammary gland and compares the formulations with the testing of lysostaphin in a peanut oil-gel matrix, similar to that used in the commercial product CEFA-LAK®, which is used to treat mastitis in lactating dairy cows.
Lysostaphin is formulated in three vehicles: 15% w/v poloxamer 407 NF, 50% w/v glycerol or 10% w/v triacetin. Lysostaphin is also formulated in a peanut oil-gel matrix. These formulations are infused into the bovine mammary gland and the ability of these combinations to exact a biological response, either by curing the infection or by clearing the mammary gland temporarily of S. aureus, are assessed.
Recombinant lysostaphin is suspended in 10.0 mL of peanut oil vehicle or dissolved in 60.0 mL of appropriate sterile vehicle (sPBS) at a concentration of 10.0 mg/mL or 1.67 mg/mL, respectively. Each of 15% poloxamer 407 NF (PLURONIC® ACID F127, a polyoxyethylene-polyoxypropylene derivative, BASF Corporation, Parsippany, N.J.); 50% glycerol (Sigma Chemical Co., St. Louis, Mo.); and 10% triacetin (glyceryl triacetate, Sigma Chemical Co., St. Louis, Mo.) are prepared in sterile phosphate buffered saline.
Staphylococcus aureus infections of the mammary gland provide an excellent model system for evaluating therapeutic efficacy of a variety of pharmaceutical and biological agents for many infectious diseases of mammals. Therefore, experimental infections are established with S. aureus (strain Newbould 305). All mammary glands to be inoculated are free of pathogens and have individual quarter somatic cell counts (SCC) less than 200,000 cells/mL of milk. Inoculum is prepared from a four-hour culture grown in trypticase soy broth and diluted. Inoculations are made by infusion of 1.0 mL diluted culture containing 90 colony forming units of S. aureus (Newbould 305) into the teat cistern of a milked-out mammary quarter. Quarters which fail to establish an infection after six days from initial inoculation are reinfected.
Prepared in PBS is 50% glycerol and the solution is then sterile filtered (0.45μ). Poloxamer 407 NF is mixed overnight and prepared similarly. A 10% triacetin solution is prepared aseptically in sterile PBS. Appropriate amounts of lysostaphin is added so the final concentration is 1.67 mg/mL. All preparations are in a total volume of 60.0 mL and made the day of the infusion. All solutions are sterile filtered through a 0.45μ filter.
Duration of treatment: 3 consecutive PM milkings
Quarters are randomly assigned to one of six treatment groups. All quarters are infused with the appropriate vehicle (60.0 mL) with or without lysostaphin over three consecutive PM milkings. […]

[7] = system: S. aureus; assay: Potentiation of bacteriostatic activity of lysostaphin by vehicles (checkered analysis); format: cell-based, Staphylococcus aureus
Description: In order to identify the nontoxic formulations for mammalian use, toxicity is employed as a method to eliminate direct bactericidal effects on the S. aureus, as well as potential toxic effects on the target animal. Compounds are formulated with r-lysostaphin at concentrations below toxic effects and compared to the bacteriostatic activity of r-lysostaphin in a saline formulation. Some compounds potentiate r-lysostaphin bacteriostatic activity by as much as 300-1000 fold.
Several surfactants, detergents, oils, emollients and membrane solubilizers are chosen as representative of various classes of compounds which may affect protein activity. These vehicles are then evaluated for toxicity and potentiation of the bacteriostatic effects of r-lysostaphin on S. aureus according to the methods described in the foregoing examples. […] Secondly, the vehicles are subjected to the toxicity test on murine cells in vitro. Viable cells are evaluated by trypan blue exclusion and normalized to an untreated control. Thereafter, dairy cattle are infused through the teat canal with various concentrations of the vehicle to make a determination of the irritation potential after intramammary infusion as a measure of mammalian toxicity. Milk samples are collected after infusion of said vehicles and the somatic cell count is determined. The Stimulation Index equals the post-infusion SCC divided by the pre-infusion SCC. The vehicles showing minimal toxicity to S. aureus and mammalian cells in vitro and in vivo are subsequent candidates for evaluation in the in vivo potentiation trials.
Various vehicle combinations are tested in a standard checkered analysis which simultaneously varies the concentration of both parameters to examine the individual contribution of each. Vehicles are all compared to r-lysostaphin in a saline solution, i.e., the potentiation index. […] Glycerol and triacetin, while only potentiating the activity of r-lysostaphin 6-8 fold, is manifested by bactericidal effects (see above Table IV).

[8] = system: S. aureus mastitis; assay: Therapy of S. aureus bovine mastitis (background); conditions: in vivo efficacy trials; in words
[9] = mouse, a20 cells, Relative Toxicity at 6 Hours

CCCCCCCC(=O)OCC(O)CO (centres unmarked) [IMWITOR ®, Glyceryl monocaprylate]
viability at 6 h ([1]; lb/62287 b-cell lymphoma, LB, 6 h, vehicle 0.01%, read-out: Relative Toxicity at 6 Hours): 50 to 74%
viability at 6 h ([1]; lb/62287 b-cell lymphoma, LB, 6 h, vehicle 0.1%, read-out: Relative Toxicity at 6 Hours): 25 to 49%
viability at 6 h ([1]; lb/62287 b-cell lymphoma, LB, 6 h, vehicle 1.0%, read-out: Relative Toxicity at 6 Hours): 25 to 49%
viability at 72 h ([1]; lb/62287 b-cell lymphoma, LB, 72 h, vehicle 0.01%, read-out: Relative Toxicity at 72 Hours): 50 to 74%
viability at 72 h ([1]; lb/62287 b-cell lymphoma, LB, 72 h, vehicle 0.1%, read-out: Relative Toxicity at 72 Hours): 0 to 24%
viability at 72 h ([1]; lb/62287 b-cell lymphoma, LB, 72 h, vehicle 1.0%, read-out: Relative Toxicity at 72 Hours): 0 to 24%
viability at 6 h [1, 9]: 50 to 74%
Relative Toxicity at 6 Hours [2]: -
Relative Toxicity at 72 Hours [2]: -
viability at 6 h [3]: 75 to 90%

CC(=O)OCC(COC(C)=O)OC(C)=O [Triacetin, glyceryl triacetate]
viability at 6 h ([1]; lb/62287 b-cell lymphoma, Relative Toxicity at 6 Hours): 75 to 90%
viability at 72 h ([1]; lb/62287 b-cell lymphoma, Relative Toxicity at 72 Hours): 0 to 24%
viability at 6 h [1, 9]: 75 to 90%
Relative Toxicity at 6 Hours [2]: -
Relative Toxicity at 72 Hours [2]: -
Relative Toxicity at 6 Hours [4]: -
Relative Toxicity at 72 Hours [4]: -
Tolerability / irritation upon infusion [5]: A small amount of irritation to some animals
% Cures ([6]; 100 mg lysostaphin infusions on three consecutive days): 25%
Effect on potentiating the in vivo efficacy of lysostaphin ([6]; in words): Neither glycerol nor triacetin (both have a cure rate of 25%) has any significant effect
Character of potentiation ([7]; in words (footnotes, text)): Potentiates the bactericidal activity of rlysostaphin
Vehicle Conc. w/Max. Potentiation (%) ([7]; with r-lysostaphin): 10.0%

lipopolysaccharide
Clearing of the mammary gland of S. aureus [8]: able to clear the mammary gland temporarily of S. aureus
